# In patent publication US20080188483A1, “Compounds and Compositions as Protein Kinase Inhibitors” (IRM LLC, priority 2006, published 2008):
# pIC50: −log10 of the molar value.
# Columns and labels:
# [1] = system: b-Raf (A375 cells, V599E mutation); assay: b-Raf cellular assay (phosphorylation of MEK in A375 cells); type: cell-based; conditions: Homo sapiens, A-375, phospho-MEK
# Method: Compounds of the invention are tested in A375 cells for their ability to inhibit phosphorylation of MEK. A375 cell line (ATCC) is derived from a human melanoma patient and it has a V599E mutation on the B-Raf gene. The levels of phosphorylated MEK are elevated due to the mutation of B-Raf. Sub-confluent to confluent A375 cells are incubated with compounds for 2 hours at 37° C. in serum free medium. Cells are then washed once with cold PBS and lysed with the lysis buffer containing 1% Triton X100. After centrifugation, the supernatants are subjected to SDS-PAGE, and then transferred to nitrocellulose membranes. The membranes are then subjected to western blotting with anti-phospho-MEK antibody (ser217/221) (Cell Signaling). The amount of phosphorylated MEK is monitored by the density of phospho-MEK bands on the nitrocellulose membranes.
# [2] = target: T1, PDGFRβ (Ba/F3-Tel-PDGFRβ) (Homo sapiens, UniProt P09619); assay: PDGFRβ cellular assay (Ba/F3-Tel-PDGFRβ proliferation); type: cell-based; conditions: read-out: IC50 against PDGFRβ in the cellular assay
# T1 construct: expressed in transfected cells; host or cells: Ba/F3; the other entry of the earlier key: ETV6 (P41212, Transcription factor ETV6)
# b-Raf = b-Raf (Homo sapiens, UniProt P15056); assay: b-Raf enzymatic assay; type: biochemical
# Method: Compounds of the invention are tested for their ability to inhibit the activity of b-Raf. The assay is carried out in 384-well MaxiSorp plates (NUNC) with black walls and clear bottom. The substrate, IκBα: is diluted in DPBS (1:750) and 15 μl is added to each well. The plates are incubated at 4° C. overnight and washed 3 times with TBST (25 mM Tris, pH 8.0, 150 mM NaCl and 0.05% Tween-20) using the EMBLA plate washer. Plates are blocked by Superblock (15 μl/well) for 3 hours at room temperature, washed 3 times with TBST and pat-dried. Assay buffer containing 20 μM ATP (10 μl) is added to each well followed by 100 nl or 500 nl of compound. B-Raf is diluted in the assay buffer (1 μl into 25 μl) and 10 μl of diluted b-Raf is added to each well (0.4 μg/well). The plates are incubated at room temperature for 2.5 hours. The kinase reaction is stopped by washing the plates 6 times with TBST. Phosph-IκBα (Ser32/36) antibody is diluted in Superblock (1:10,000) and […] is added to each well. The plates are incubated at 4° C. overnight and washed 6 times with TBST. AP-conjugated goat-anti-mouse IgG is diluted in Superblock (1:1,500) and 15 μl is added to each well. Plates are incubated at room temperature for 1 hour and washed 6 times with TBST. […] Plates are read on Acquest or Analyst GT using a Fluorescence Intensity Program (Excitation 455 nm, Emission 580 nm).
# CSK = target: T2, CSK (Homo sapiens, UniProt P41240); assay: Upstate KinaseProfiler radio-enzymatic filter binding assay; type: biochemical; conditions: at a concentration of 10 μM; read-out: percentage inhibition of CSK
# T2 construct: purchased Upstate
# Method: (§1) Compounds of the invention are assessed for their ability to inhibit individual members of a panel of kinases (a partial, non-limiting list of kinases includes: Abl, BMX, BTK, CHK2, c-RAF, CSK, c-SRC, Fes, FGFR3, Flt3, IKKα, IKKβ, JNK2α2, Lck, Met, MKK4, MKK6, MST2, NEK2, p70S6K, PDGFRβ, PKA, PKBα, PKD2, Rsk1, SAPK2α, SAPK2β, SAPK3, SGK, Tie2 and/or TrkB. The compounds are tested in duplicates at a final concentration of 10 μM following this generic protocol. Note that the kinase buffer composition and the substrates vary for the different kinases included in the “Upstate KinaseProfiler™” panel. Kinase buffer (2.5 μL, 10×—containing MnCl2 when required), active kinase (0.001-0.01 Units; 2.5 μL), specific or Poly(Glu4-Tyr) peptide (5-500 μM or 0.01 mg/ml) in kinase buffer and kinase buffer (50 μM; 5 μL) are mixed in an eppendorf on ice. A Mg/ATP mix (10 μL; 67.5 (or 33.75) mM MgCl2, 450 (or 225) μM ATP and 1 μCi/μl [γ-^32P]-ATP (3000 Ci/mmol)) is added and the reaction is incubated at about 30° C. for about 10 minutes. The reaction mixture is spotted (20 μL) onto a 2 cm×2 cm P81 (phosphocellulose, for positively charged peptide substrates) or Whatman No. 1 (for Poly (Glu4-Tyr) peptide substrate) paper square. The assay squares are washed 4 times, for 5 minutes each, with 0.75% phosphoric acid and washed once with acetone for 5 minutes. The assay squares are transferred to a scintillation vial, 5 ml scintillation cocktail are added and ^32P incorporation (cpm) to the peptide substrate is quantified with a Beckman scintillation counter. Percentage inhibition is calculated for each reaction.
# Abl = target: T3, Abl (Homo sapiens, UniProt P00519); assay: as above; type: biochemical; conditions: at a concentration of 10 μM; read-out: percentage inhibition of Abl
# T3 construct: purchased Upstate
# Method: as §1
# c-RAF = target: T4, c-RAF (Homo sapiens, UniProt P04049); assay: as above; type: biochemical; conditions: at a concentration of 10 μM; read-out: percentage inhibition of c-RAF
# T4 construct: purchased Upstate
# Method: as §1
# FGFR3 = target: T5, FGFR3 (Homo sapiens, UniProt P22607); assay: as above; type: biochemical; conditions: at a concentration of 10 μM; read-out: percentage inhibition of FGFR3
# T5 construct: purchased Upstate
# Method: as §1
# Bcr-Abl = assay: as above; type: biochemical; conditions: at a concentration of 10 μM
# Method: as §1
# PDGFRβ = target: T6, PDGFRβ (Homo sapiens, UniProt P09619); assay: as above; type: biochemical; conditions: at a concentration of 10 μM; read-out: percentage inhibition of PDGFRβ
# T6 construct: purchased Upstate
# Method: as §1
# T2 sequence (P41240 whole entry): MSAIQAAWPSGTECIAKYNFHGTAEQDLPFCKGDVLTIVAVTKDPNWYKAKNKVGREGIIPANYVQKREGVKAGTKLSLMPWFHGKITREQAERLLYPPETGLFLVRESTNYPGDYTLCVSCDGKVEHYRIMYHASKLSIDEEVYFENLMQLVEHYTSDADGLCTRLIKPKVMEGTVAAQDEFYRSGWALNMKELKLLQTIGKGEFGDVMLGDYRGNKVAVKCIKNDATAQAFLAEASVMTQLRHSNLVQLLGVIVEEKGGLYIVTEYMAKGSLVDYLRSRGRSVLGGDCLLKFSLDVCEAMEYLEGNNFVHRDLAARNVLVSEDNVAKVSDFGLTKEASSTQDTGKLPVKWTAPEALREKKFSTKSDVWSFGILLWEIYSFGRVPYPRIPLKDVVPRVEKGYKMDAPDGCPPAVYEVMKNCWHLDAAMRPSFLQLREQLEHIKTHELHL
# T3 sequence (P00519 whole entry, species assumed): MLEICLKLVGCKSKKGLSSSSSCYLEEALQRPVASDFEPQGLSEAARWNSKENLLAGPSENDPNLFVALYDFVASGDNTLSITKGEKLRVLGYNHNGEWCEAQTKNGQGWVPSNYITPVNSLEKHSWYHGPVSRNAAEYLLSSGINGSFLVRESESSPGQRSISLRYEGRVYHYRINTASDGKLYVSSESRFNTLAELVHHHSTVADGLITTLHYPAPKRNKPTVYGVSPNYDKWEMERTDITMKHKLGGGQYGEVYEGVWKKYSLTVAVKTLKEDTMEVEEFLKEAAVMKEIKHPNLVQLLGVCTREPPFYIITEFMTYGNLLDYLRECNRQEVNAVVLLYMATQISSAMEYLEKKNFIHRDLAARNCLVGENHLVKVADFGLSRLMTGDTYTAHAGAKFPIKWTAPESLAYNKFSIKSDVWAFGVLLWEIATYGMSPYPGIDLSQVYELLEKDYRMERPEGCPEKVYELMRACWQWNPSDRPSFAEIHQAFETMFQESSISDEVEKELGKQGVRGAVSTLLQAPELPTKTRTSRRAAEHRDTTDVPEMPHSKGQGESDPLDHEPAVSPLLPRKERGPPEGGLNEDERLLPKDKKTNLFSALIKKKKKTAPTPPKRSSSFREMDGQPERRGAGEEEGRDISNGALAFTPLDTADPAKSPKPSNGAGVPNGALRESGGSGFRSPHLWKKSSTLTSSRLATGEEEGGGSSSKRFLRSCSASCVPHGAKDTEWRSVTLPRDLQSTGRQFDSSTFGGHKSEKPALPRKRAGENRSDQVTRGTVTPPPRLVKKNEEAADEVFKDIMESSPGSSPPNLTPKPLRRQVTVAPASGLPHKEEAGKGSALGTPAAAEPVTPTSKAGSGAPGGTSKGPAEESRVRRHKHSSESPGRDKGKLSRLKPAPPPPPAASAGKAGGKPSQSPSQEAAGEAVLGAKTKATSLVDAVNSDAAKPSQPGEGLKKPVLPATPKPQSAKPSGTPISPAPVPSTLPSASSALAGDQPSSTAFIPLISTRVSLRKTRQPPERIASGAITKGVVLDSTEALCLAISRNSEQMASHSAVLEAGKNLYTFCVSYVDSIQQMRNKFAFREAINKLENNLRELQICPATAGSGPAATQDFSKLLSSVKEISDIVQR
# Chain of b-Raf (P15056 whole entry): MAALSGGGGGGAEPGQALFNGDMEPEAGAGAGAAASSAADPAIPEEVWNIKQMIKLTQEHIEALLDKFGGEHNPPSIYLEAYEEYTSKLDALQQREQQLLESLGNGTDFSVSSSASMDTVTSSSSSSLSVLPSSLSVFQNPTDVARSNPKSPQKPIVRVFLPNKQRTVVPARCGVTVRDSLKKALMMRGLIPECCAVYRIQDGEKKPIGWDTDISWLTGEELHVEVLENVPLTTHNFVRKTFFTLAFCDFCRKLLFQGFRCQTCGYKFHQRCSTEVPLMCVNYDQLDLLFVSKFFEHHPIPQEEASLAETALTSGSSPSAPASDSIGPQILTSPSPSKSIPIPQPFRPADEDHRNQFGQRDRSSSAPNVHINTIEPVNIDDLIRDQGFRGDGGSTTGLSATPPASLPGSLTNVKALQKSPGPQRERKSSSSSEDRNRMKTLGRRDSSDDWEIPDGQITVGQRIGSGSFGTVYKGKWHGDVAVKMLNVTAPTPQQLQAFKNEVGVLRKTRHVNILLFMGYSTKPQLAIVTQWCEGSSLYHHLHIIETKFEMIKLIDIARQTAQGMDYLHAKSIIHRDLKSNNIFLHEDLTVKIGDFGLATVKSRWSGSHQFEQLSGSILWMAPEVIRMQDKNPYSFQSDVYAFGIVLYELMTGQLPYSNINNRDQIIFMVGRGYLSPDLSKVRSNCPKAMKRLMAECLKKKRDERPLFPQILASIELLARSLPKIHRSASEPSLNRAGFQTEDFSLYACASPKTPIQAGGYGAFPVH
# T4 sequence (P04049 whole entry): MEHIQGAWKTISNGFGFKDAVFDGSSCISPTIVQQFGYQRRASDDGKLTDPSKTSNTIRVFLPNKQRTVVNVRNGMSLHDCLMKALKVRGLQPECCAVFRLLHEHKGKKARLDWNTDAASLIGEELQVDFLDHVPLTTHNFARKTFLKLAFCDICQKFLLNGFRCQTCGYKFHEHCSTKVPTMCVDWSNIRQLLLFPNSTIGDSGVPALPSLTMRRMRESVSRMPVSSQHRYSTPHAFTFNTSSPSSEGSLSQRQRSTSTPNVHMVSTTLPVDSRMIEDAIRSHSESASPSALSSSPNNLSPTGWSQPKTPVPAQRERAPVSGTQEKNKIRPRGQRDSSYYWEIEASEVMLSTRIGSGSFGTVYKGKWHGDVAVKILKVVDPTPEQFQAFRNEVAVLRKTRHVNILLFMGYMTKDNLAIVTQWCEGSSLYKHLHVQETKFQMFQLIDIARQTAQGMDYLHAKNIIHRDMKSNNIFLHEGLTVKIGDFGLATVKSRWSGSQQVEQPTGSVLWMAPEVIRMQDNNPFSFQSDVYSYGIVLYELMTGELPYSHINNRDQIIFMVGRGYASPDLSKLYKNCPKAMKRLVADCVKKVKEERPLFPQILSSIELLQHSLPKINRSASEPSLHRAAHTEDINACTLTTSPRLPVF
# T5 sequence (P22607 23-806): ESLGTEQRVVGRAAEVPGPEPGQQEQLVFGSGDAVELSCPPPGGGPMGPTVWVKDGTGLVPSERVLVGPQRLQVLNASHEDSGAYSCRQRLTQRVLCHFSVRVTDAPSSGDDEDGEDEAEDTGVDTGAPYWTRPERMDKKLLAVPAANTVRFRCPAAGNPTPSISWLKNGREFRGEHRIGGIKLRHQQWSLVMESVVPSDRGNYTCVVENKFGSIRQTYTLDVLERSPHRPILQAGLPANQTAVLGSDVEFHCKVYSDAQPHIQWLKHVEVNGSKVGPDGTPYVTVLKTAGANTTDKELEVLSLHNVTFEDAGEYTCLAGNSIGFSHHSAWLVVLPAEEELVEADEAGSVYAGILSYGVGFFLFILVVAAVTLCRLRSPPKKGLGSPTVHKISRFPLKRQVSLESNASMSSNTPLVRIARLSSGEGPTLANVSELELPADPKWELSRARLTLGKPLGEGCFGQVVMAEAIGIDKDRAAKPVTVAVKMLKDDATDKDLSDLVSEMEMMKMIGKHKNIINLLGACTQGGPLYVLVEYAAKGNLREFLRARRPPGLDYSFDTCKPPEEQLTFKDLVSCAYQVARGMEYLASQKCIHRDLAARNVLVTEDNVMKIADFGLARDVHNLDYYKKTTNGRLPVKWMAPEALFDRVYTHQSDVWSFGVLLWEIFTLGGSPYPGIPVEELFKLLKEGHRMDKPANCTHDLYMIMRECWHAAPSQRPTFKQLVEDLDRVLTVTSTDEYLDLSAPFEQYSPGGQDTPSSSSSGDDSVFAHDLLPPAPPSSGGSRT
# T1 sequence (P09619 600-962 limits assumed): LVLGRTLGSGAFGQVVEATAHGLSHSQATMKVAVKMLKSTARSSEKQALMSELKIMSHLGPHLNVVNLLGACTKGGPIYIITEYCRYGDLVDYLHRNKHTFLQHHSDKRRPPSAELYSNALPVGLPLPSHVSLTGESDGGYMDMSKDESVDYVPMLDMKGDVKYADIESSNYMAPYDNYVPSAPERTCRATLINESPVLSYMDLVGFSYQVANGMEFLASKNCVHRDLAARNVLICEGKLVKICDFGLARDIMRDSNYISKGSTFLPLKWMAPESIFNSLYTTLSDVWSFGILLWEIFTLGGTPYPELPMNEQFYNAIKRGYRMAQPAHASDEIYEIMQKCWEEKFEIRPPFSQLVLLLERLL
compound,measurement,setting,value
"Cc1cn(-c2cc(C(=O)Nc3ccc(C)c(Nc4nccn4-c4ncnc5[nH]ccc45)c3)cc(C(F)(F)F)c2)cn1 [Example 2, 3-(4-methyl-imidazol-1-yl)-N-{4-methyl-3-[1-(7H-pyrrolo[2,3-d]pyrimidin-4-yl)-1H-imidazol-2-ylamino]-phenyl}-5-trifluoromethyl-benzamide]",pIC50,[1],7.49
same,pIC50,[2],8.40
same,pIC50,b-Raf,8.70
same,inhibition at 10 µM,CSK,97%
same,inhibition at 10 µM,Abl,99%
same,inhibition at 10 µM,c-RAF,98%
same,inhibition at 10 µM,FGFR3,89%
same,percentage inhibition of Bcr-Abl,Bcr-Abl,99%
same,inhibition at 10 µM,PDGFRβ,83%
